# Source: patent US11896592B2, “Certain triazolopyridines and triazolopyrazines, compositions thereof and methods of use therefor” (Hutchison Medipharma Limited, priority 2009, dated 2024)
# pIC50: −log10 of the molar value.
# Biological target: T1, Recombinant human Met (c-Met) (Homo sapiens, UniProt P08581)
# T1 construct: purchased Invitrogen PV3143
# Experiment: Inhibition of c-Met kinase activity using Transcreener FP assay
# Type: biochemical
# Settings: IC50, inhibition of c-Met kinase activity, Poly E4Y substrate, 28° C. 45 min
# Experimental: Compound dilution: dilute test articles to 5 folds of the testing concentration using 20% DMSO.
# The mixture is kept on ice until use;
# Prepare ATP standard curve stock as following:
# 3. Enzymatic reaction: in 96-well reaction plate
# Add 5 μL of test article or 5 μL of 20% DMSO or 5 μL of 500 mM EDTA;
# Add 10 μL of Enzyme/Substrate stock;
# Add 10 μL of ATP Diluent to begin the enzyme reaction and mix on plate shaker;
# Add 5 μL of 20% DMSO, 10 μL of assay buffer and 10 μL of ATP standard curve stock into standard curve wells;
# Gently shake at 28° C. for 45 min.
# 4. Stop reaction and detect ADP
# Prepare Detection Mix: According to the procedures described in the Assay kit, Alexa633 tracer, ADP antibody and stop & detect buffer were added into H2O and mixed thoroughly. Prepare Tracer Only control: According to the procedures described in the Assay kit, ADP Alexa633 tracer and stop & detect buffer were added to H2O and mixed throughly.
# Prepare No Tracer control: According to the procedures described in the Assay kit, the stop & detect buffer was diluted with H2O;
# Add 25 μL of detection mix, Tracer Only control and No Tracer control into corresponding wells, respectively;
# The reaction plate was gently shaken at 28° C. for 1 h;
# Florescence polarization (FP) was measured on TECAN F500. Excitation wavelength: 610 nm, Emission wavelength: 670 nm.
# Compound well [ADP] represents the ADP concentration of the compound well. Positive control well [ADP] represents the ADP concentration of the 20% DMSO well. Conversion of mP value to ADP concentration is based on the formula which is determined by standard curve.
# IC50: calculated using XL-Fit 2.0 software.
# T1 sequence (P08581 956-1390 limits assumed): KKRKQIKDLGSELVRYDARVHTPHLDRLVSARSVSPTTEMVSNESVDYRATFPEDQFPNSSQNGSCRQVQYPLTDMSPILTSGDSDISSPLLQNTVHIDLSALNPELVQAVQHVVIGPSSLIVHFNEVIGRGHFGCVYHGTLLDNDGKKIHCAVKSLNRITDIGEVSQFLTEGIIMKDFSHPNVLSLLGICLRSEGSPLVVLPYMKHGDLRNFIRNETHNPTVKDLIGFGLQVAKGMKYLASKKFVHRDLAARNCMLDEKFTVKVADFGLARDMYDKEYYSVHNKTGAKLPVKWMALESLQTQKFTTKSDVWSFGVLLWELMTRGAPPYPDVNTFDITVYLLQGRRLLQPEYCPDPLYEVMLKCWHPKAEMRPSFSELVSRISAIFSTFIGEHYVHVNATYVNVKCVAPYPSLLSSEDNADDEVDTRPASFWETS
row,Structure (SMILES),pIC50
1,C[C@H](c1ccc2nccn2c1)n1nnc2ncc(-c3cnn(C)c3)nc21 [Compound 271],7.00 to 9.00
2,C[C@@H](c1ccc2nccn2c1)n1nnc2ncc(-c3cnn(C)c3)nc21 [Compound 270],7.00 to 9.00

# Same assay, conditions: Poly E4Y substrate, 28° C. 45 min, read-out: IC50, inhibition of c-Met kinase activity
row,Structure (SMILES),pIC50
1,COCCOc1cc(Nc2cnc3nnn(Cc4ccc5ncccc5c4)c3n2)ccn1 [Compound 186],7.00 to 9.00
2,c1cnc2ccc(Cn3nnc4ncc(Nc5ccc(N6CCOCC6)cn5)nc43)cc2c1 [Compound 165],7.00 to 9.00
3,"Cn1cc(-c2cc(Cl)c3nnn(Cc4ccc5ncccc5c4)c3n2)cn1 [Compound 263, 6-((7-Chloro-5-(1-methyl-1H-pyrazol-4-yl)-3H-[1,2,3]triazolo[4,5-b]pyridin-3-yl)methyl)quinoline]",6.00 to 7.00
4,Cc1cccc(Nc2ccc3nnn(Cc4ccc5ncccc5c4)c3n2)n1 [Compound 181],6.00 to 7.00
5,c1cc(-c2cnc3nnn(Cc4ccc5nccn5c4)c3n2)ccn1 [Compound 275],7.00 to 9.00
6,OCCn1cc(-c2cnc3nnn(Cc4cc5cccnc5s4)c3n2)cn1 [Compound 5],6.00 to 7.00
7,O=C(Cn1cc(-c2cnc3nnn(Cc4ccc5ncsc5c4)c3n2)cn1)NC1CC1 [Compound 24],7.00 to 9.00
8,N#Cc1cc(Nc2cnc3nnn(Cc4ccc5ncccc5c4)c3n2)ccn1 [Compound 190],7.00 to 9.00
9,c1cc(Nc2cnc3nnn(Cc4ccc5ncccc5c4)c3n2)nc(N2CCOCC2)c1 [Compound 166],7.00 to 9.00
10,COc1cccc(-c2ccc3nnn(Cc4c[nH]c5ncccc45)c3n2)c1 [Compound 112],7.00 to 9.00
11,COc1cccc(Nc2cnc3nnn(Cc4ccc5ncccc5c4)c3n2)n1 [Compound 197],7.00 to 9.00
12,c1cnc2ccc(Cn3nnc4ncc(Nc5ccnc(NC6CCOC6)c5)nc43)cc2c1 (stereo not drawn) [Compound 222],7.00 to 9.00
13,COc1ccc(-c2cnc3nnn(Cc4ccc5nccn5c4)c3n2)cc1 [Compound 57],7.00 to 9.00
14,CC(c1c[nH]c2ncccc12)n1nnc2ccc(-c3cnn(CCO)c3)nc21 (stereo not drawn) [Compound 113],7.00 to 9.00
15,COc1ccc(-c2cnc3nnn(Cc4ccc5nccn5c4)c3n2)cn1 [Compound 276],7.00 to 9.00
16,Cn1cc(-c2ccc3nnn(Cc4ccc5ncsc5c4)c3n2)cn1 [Compound 72],7.00 to 9.00
17,Cc1cc(Nc2cnc3nnn(Cc4ccc5ncccc5c4)c3n2)cc(C)n1 [Compound 224],7.00 to 9.00
18,c1cn2cc(Cn3nnc4ncc(-c5cnn(C6CNC6)c5)nc43)ccc2n1 [Compound 290],7.00 to 9.00
19,c1cn2cc(Cn3nnc4ccc(-c5cnn(C6CCOCC6)c5)nc43)ccc2n1 [Compound 143],6.00 to 7.00
20,CC(c1ccc2ncsc2c1)n1nnc2ncc(-c3cnn(CCO)c3)nc21 (stereo not drawn) [Compound 20],7.00 to 9.00
21,CCn1cc(-c2cnc3nnn(Cc4cc5[nH]ncc5s4)c3n2)cn1 [Compound 25],7.00 to 9.00
22,"Cn1ccc(Nc2cnc3nnn(Cc4ccc5ncccc5c4)c3n2)n1 [Compound 152, N-(1-methyl-1H-pyrazol-3-yl)-1-(quinolin-6-ylmethyl)-1H-[1,2,3]triazolo-[4,5-b]pyrazin-6-amine]",7.00 to 9.00
23,c1cnc2ccc(Cn3nnc4ccc(-c5cn[nH]c5)nc43)cc2c1 [Compound 145],7.00 to 9.00
24,O[C@@H]1CCC[C@H]1Nc1cc(Nc2cnc3nnn(Cc4ccc5ncccc5c4)c3n2)ccn1 [Compound 207],7.00 to 9.00

# Other lines, results leading:
row,pIC50,Structure (SMILES)
1,7.00 to 9.00,CCCn1cc(-c2ccc3nnn(Cc4ccc5nccn5c4)c3n2)cn1 [Compound 140]
2,7.00 to 9.00,COc1cncc(Nc2ccc3nnn(Cc4ccc5ncccc5c4)c3n2)c1 [Compound 180]
3,6.00 to 7.00,COCCOc1ccncc1Nc1cnc2nnn(Cc3ccc4ncccc4c3)c2n1 [Compound 208]
4,6.00 to 7.00,OCCOc1ccnc(Nc2cnc3nnn(Cc4ccc5ncccc5c4)c3n2)c1 [Compound 201]
5,7.00 to 9.00,OCCOc1cc(Nc2cnc3nnn(Cc4ccc5ncccc5c4)c3n2)ccn1 [Compound 194]
6,7.00 to 9.00,c1cnc2ccc(Cn3nnc4ccc(NC5CCOCC5)nc43)cc2c1 [Compound 253]
7,6.00 to 7.00,CC(O)Cn1cc(-c2ccc3nnn(Cc4ccc5ncccc5c4)c3n2)cn1 (stereo not drawn) [Compound 100]
8,6.00 to 7.00,COCCn1cc(-c2cnc3nnn(Cc4ccc5ncnn5c4)c3n2)cn1 [Compound 53]
9,7.00 to 9.00,COCCn1cc(-c2cnc3nnn(Cc4ccc5nccn5c4)c3n2)cn1 [Compound 58]
10,7.00 to 9.00,FC(F)(F)Cn1cc(-c2cnc3nnn(Cc4cc5[nH]ncc5s4)c3n2)cn1 [Compound 42]
11,7.00 to 9.00,c1ccc(Sc2cnc3nnn(Cc4ccc5ncccc5c4)c3n2)nc1 [Compound 252]
12,6.00 to 7.00,FC(F)(F)Cn1cc(-c2cnc3nnn(Cc4ccn5nccc5n4)c3n2)cn1 [Compound 293]
13,7.00 to 9.00,COc1ncc(-c2cnc3nnn(C(C)c4ccc5nccn5c4)c3n2)cc1NS(C)(=O)=O (stereo not drawn) [Compound 329]
14,7.00 to 9.00,FC(F)(F)Cn1cc(-c2cnc3nnn(Cc4ccc5ncnn5c4)c3n2)cn1 [Compound 52]
15,7.00 to 9.00,c1cnc2ccc(Cn3nnc4ncc(Nc5ccnc(O[C@H]6CCOC6)c5)nc43)cc2c1 [Compound 217]
16,7.00 to 9.00,"COCc1cnn2ccc(Cn3nnc4ncc(-c5cnn(CCO)c5)nc43)cc12 [Compound 322, 2-(4-(1-((3-(Methoxymethyl)pyrazolo[1,5-a]pyridin-5-yl)methyl)-1H-[1,2,3]triazolo[4,5-b]pyrazin-6-yl)-1H-pyrazol-1-yl)ethanol]"
17,7.00 to 9.00,FC(F)(F)c1ccnc(Nc2cnc3nnn(Cc4ccc5ncccc5c4)c3n2)c1 [Compound 220]

row,pIC50,Structure (SMILES)
1,6.00 to 7.00,OCCNc1ccnc(Nc2cnc3nnn(Cc4ccc5ncccc5c4)c3n2)c1 [Compound 205]
2,6.00 to 7.00,Cc1ccc(-c2ccc3nnn(Cc4ccc5ncccc5c4)c3n2)cn1 [Compound 79]
3,7.00 to 9.00,Cn1cc(Nc2cnc3nnn(Cc4ccc5ncccc5c4)c3n2)cn1 [Compound 173]
4,6.00 to 7.00,O[C@@H]1CCC[C@H]1Nc1ccnc(Nc2cnc3nnn(Cc4ccc5ncccc5c4)c3n2)c1 [Compound 206]
5,7.00 to 9.00,Cn1cc(-c2ccc3nnn(Cc4ccc5nccn5c4)c3n2)cn1 [Compound 133]
6,6.00 to 7.00,OC1CCCC1n1cc(-c2ccc3nnn(Cc4ccc5ncccc5c4)c3n2)cn1 (stereo not drawn) [Compound 119]
7,7.00 to 9.00,c1cnc2ccc(Cn3nnc4ccc(-c5cc[nH]n5)nc43)cc2c1 [Compound 81]
8,7.00 to 9.00,Cc1cnc2ccc(Cn3nnc4ncc(-c5cnn(CCO)c5)nc43)cn12 [Compound 305]
9,7.00 to 9.00,CNC(=O)c1ccc(-c2ccc3nnn(Cc4ccc5ncccc5c4)c3n2)cn1 [Compound 83]
10,7.00 to 9.00,Cn1cc(-c2cnc3nnn(Cc4ccc5ncc(Cl)n5c4)c3n2)cn1 [Compound 300]
11,6.00 to 7.00,COCCn1cc(-c2ccc3nnn(Cc4ccc5ncccc5c4)c3n2)cn1 [Compound 93]
12,7.00 to 9.00,COC(=O)c1cnn2ccc(Cn3nnc4ncc(-c5cnn(CCO)c5)nc43)cc12 [Compound 304]
13,7.00 to 9.00,CCC(c1ccc2nccn2c1)n1nnc2ncc(-c3cnn(C)c3)nc21 (stereo not drawn) [Compound 326]
14,7.00 to 9.00,COc1ccc(Nc2cnc3nnn(Cc4ccc5ncccc5c4)c3n2)cn1 [Compound 162]
15,7.00 to 9.00,c1csc(-c2ccc3nnn(Cc4ccc5ncccc5c4)c3n2)c1 [Compound 87]
16,7.00 to 9.00,CC(c1ccc2nccn2c1)n1nnc2ncc(-c3cn[nH]c3)nc21 (stereo not drawn) [Compound 328]
17,7.00 to 9.00,CCCn1cc(-c2cnc3nnn(Cc4ccc5nccn5c4)c3n2)cn1 [Compound 47]
